From patent publication US11603349B2, “Anti-fibrotic compounds” (Certa Therapeutics Pty Ltd, priority 2017, dated 2023)
Where a name gives a salt, the structure may show the parent alone.

Experiments:
[1] = test system: TGF-β induced [14C]-proline incorporation in rat mesangial cells; test: [14C]-proline incorporation assay (collagen biosynthesis); assay type: cell-based; details: inhibition of TGF-β1 (1 ng/ml) induced [14C]-proline incorporation, IRMC cells
in vitro = details: rat, CC50 (μM)
[2] = Discrete oral pharmacokinetic studies in male Sprague Dawley rats; assay type: in vivo, rat; details: male SD rats; for change in plasma concentrations between the 75 and 350 mg/kg/day dosing groups: after the initial dose; for trough concentrations, 75 and 350 mg/kg/day dosing group: daily, throughout the 5-day study
Experimental: Discrete oral pharmacokinetic studies were performed for example compounds 116, 107, and 102.
116: 2 mg/kg and 20 mg/kg of 116 were administered as single doses to male Sprague Dawley (SD) rats. 75 mg/kg and 350 mg/kg of 116 were administered daily (5 days) to male Sprague Dawley (SD) rats.
107: 2 mg/kg and 20 mg/kg of 107 were administered as single doses to male Sprague Dawley (SD) rats. 75 mg/kg and 350 mg/kg of 107 were administered daily (5 days) to male Sprague Dawley (SD) rats.
102: 2 mg/kg and 20 mg/kg of 102 were administered as single doses to male Sprague Dawley (SD) rats. 75 mg/kg and 350 mg/kg of 102 were administered daily (5 days) to male Sprague Dawley (SD) rats. […] An increase in plasma concentrations were observed between the 75 and 350 mg/kg/day dosing groups.

[3] = MTS tetrazolium reduction cell viability assay; details: rat, rat mesangial cells (1097/IRMC cells), TGF-β1 stimulated, CC50 (μM), vs 1% DMSO vehicle
[4] = Rattus norvegicus, Mesangial cell, 44 h

| Compound | IC50 [1, 4] [µM] | CC50 at 48 h [3] [µM] | also measured |
| --- | --- | --- | --- |
| COc1cc(/C=C/C(=O)Nc2ccccc2C(=O)O)ccc1C1=CCNCC1 [Example 98, (E)-2-(3-(3-methoxy-4-(1,2,3,6-tetrahydropyridin-4-yl)phenyl)acrylamido)benzoic Acid] | 13.5 |  | CC50 at 48 h (in vitro): 289 µM |
| COc1cc(/C=C/C(=O)Nc2ccccc2C(=O)O)ccc1C1=CCN(C)CC1 [Example 99, (E)-2-(3-(3-methoxy-4-(1-methyl-1,2,3,6-tetrahydropyridin-4-yl)phenyl)acrylamido)benzoic Acid] | 34.7 |  | CC50 at 48 h (in vitro): > 300 µM |
| COc1cc(/C=C/C(=O)Nc2ccccc2C(=O)O)ccc1CC1CC1 [Example 102, 2-[[(E)-3-[4-(cyclopropylmethyl)-3-methoxyphenyl]prop-2-enoyl]amino]benzoic Acid] | 3.87 | 11.4 | coverage of IC50 relative to a 200 mg/kg/day regime of FT011 ([2]; 20 mg/kg): superior; coverage of IC50 relative to a 200 mg/kg/day regime of FT011 ([2]; 75 mg/kg): superior; coverage of IC50 relative to a 200 mg/kg/day regime of FT011 ([2]; 350 mg/kg): superior; change in plasma concentrations between the 75 and 350 mg/kg/day dosing groups [2]: An increase; trough concentrations, 75 and 350 mg/kg/day dosing group [2]: consistent with dosing amounts |
| COc1ccc(/C=C/C(=O)Nc2ccccc2C(=O)O)cc1C1=CCN(C)CC1 [Example 104, (E)-2-(3-(4-methoxy-3-(1-methyl-1,2,3,6-tetrahydropyridin-4-yl)phenyl)acrylamido)benzoic acid trifluoroacetic acid salt] | 41.4 |  | CC50 at 48 h (in vitro): 281 µM |
| CN1CCOc2ccc(/C=C/C(=O)Nc3ccccc3C(=O)O)cc21 [Example 107, 2-[[(E)-3-(4-methyl-2,3-dihydro-1,4-benzoxazin-6-yl)prop-2-enoyl]amino]benzoic Acid] | 14.9 | > 100 | coverage of IC50 relative to a 200 mg/kg/day regime of FT011 ([2]; 350 mg/kg): superior; adverse compound related effects ([2]; 2 and 20 mg/kg single dose, 75 and 350 mg/kg daily (5 days)): No adverse compound related effects were observed; change in plasma concentrations between the 75 and 350 mg/kg/day dosing groups [2]: an increase; trough concentrations, 75 and 350 mg/kg/day dosing group [2]: consistent with dosing amounts |
| COc1cc(/C=C/C(=O)Nc2ccc(F)cc2)ccc1C1=CCNCC1 [Example 120, (E)-N-(4-fluorophenyl)-3-(3-methoxy-4-(1,2,3,6-tetrahydropyridin-4-yl)phenyl)acrylamide] | 3.22 |  | CC50 at 48 h (in vitro): 10.8 µM |
| COc1cc(C2CC2C(=O)Nc2ccc(C#N)cc2)ccc1C1=CCNCC1 (stereo not shown) [Example 121, N-(4-cyanophenyl)-2-(3-methoxy-4-(1,2,3,6-tetrahydropyridin-4-yl)phenyl)cyclopropane Carboxamide] | 3.79 |  | CC50 at 48 h (in vitro): 8.47 µM |
| C#CCOc1ccc(C2CC2C(=O)n2nc(O)c3ccccc32)cc1OC (stereo not shown) [Example 134, (3-hydroxy-1H-indazol-1-yl)(2-(3-methoxy-4-(prop-2-yn-1-yloxy)phenyl)cyclopropyl)methanone] | 17.5 | > 300 |  |
| C#CCOc1ccc(C2CC2C(=O)Nc2ccc(C#N)cc2)cc1OC (stereo not shown) [Example 135, N-(4-cyanophenyl)-2-(3-methoxy-4-(prop-2-yn-1-yloxy)phenyl)cyclopropanecarboxamide] | 45.3 | > 300 |  |
| COc1cc(C2CC2C(=O)Nc2ccc(F)cc2)ccc1OC1CCN(C)C1 (stereo not shown) [Example 136, N-(4-fluorophenyl)-2-(3-methoxy-4-((1-methylpyrrolidin-3-yl)oxy)phenyl)cyclopropane-1-carboxamide] | 4.13 | 16.3 |  |
| COc1cc(C2CC2C(=O)Nc2ccc(C#N)cc2)ccc1OC1CCN(C)C1 (stereo not shown) [Example 137, N-(4-cyanophenyl)-2-(3-methoxy-4-((1-methylpyrrolidin-3-yl)oxy)phenyl)cyclopropane-1-carboxamide] | 15.4 | 30.8 |  |
| COc1cc(/C=C/C(=O)Nc2ccc(C#N)cc2)ccc1C1=CCNCC1 [Example 139, (E)-N-(4-cyanophenyl)-3-(3-methoxy-4-(1,2,3,6-tetrahydropyridin-4-yl)phenyl)acrylamide trifluoroacetic acid salt] | 5.36 |  | CC50 at 48 h (in vitro): 9.03 µM |
| COc1cc(/C=C/C(=O)Nc2ccccc2-n2cnc(C)n2)ccc1C1=CCNCC1 [Example 140, (E)-3-(3-methoxy-4-(1,2,3,6-tetrahydropyridin-4-yl)phenyl)-N-(2-(3-methyl-1H-1,2,4-triazol-l-yl)phenyl)acrylamide trifluoroacetic acid salt] | 8.47 |  | CC50 at 48 h (in vitro): 36.1 µM |
| COc1cc(/C=C/C(=O)Nc2ccccc2F)ccc1C1=CCNCC1 [Example 141, (E)-N-(2-fluorophenyl)-3-(3-methoxy-4-(1,2,3,6-tetrahydropyridin-4-yl)phenyl)acrylamide] | 4.85 |  | CC50 at 48 h (in vitro): 13.5 µM |
| COc1cc(/C=C/C(=O)Nc2cccc(Cl)c2)ccc1OCC1COC1 [Example 147, (E)-N-(3-chlorophenyl)-3-(3-methoxy-4-(oxetan-3-ylmethoxy)phenyl)acrylamide] | 39.1 | > 300 |  |
| COc1cc(C2CC2C(=O)Nc2cccc(Cl)c2)ccc1OCC1COC1 (stereo not shown) [Example 148, N-(3-chlorophenyl)-2-(3-methoxy-4-(oxetan-3-ylmethoxy)phenyl)cyclopropane-1-carboxamide] | 8.47 | 77.6 |  |
| COc1ccc(/C=C/C(=O)Nc2cccc(Cl)c2)cc1N1CCOCC1 [Example 151, (E)-N-(3-chlorophenyl)-3-(4-methoxy-3-morpholinophenyl)acrylamide] | 31.6 | > 300 |  |
| COc1cc(/C=C/C(=O)Nc2ccccc2Cl)ccc1OCC1COC1 [Example 152, (E)-N-(2-chlorophenyl)-3-(3-methoxy-4-(oxetan-3-ylmethoxy)phenyl)acrylamide] | 38.2 | > 300 |  |
| COc1cc(/C=C/C(=O)Nc2ccc(Cl)cc2)ccc1OCC1COC1 [Example 153, (E)-N-(4-chlorophenyl)-3-(3-methoxy-4-(oxetan-3-ylmethoxy)phenyl)acrylamide] | 35.4 | > 300 |  |
| COc1cc(C2CC2C(=O)Nc2ccc(Cl)cc2)ccc1OCC1COC1 (stereo not shown) [Example 154, N-(4-chlorophenyl)-2-(3-methoxy-4-(oxetan-3-ylmethoxy)phenyl)cyclopropane-1-carboxamide] | 8.97 | > 300 |  |
| C#CCOc1ccc(/C=C/C(=O)Nc2ccccc2C(=O)O)cc1OC [FT011, (E)-2-(3-(3-methoxy-4-(prop-2-yn-1-yloxy)phenyl)acrylamido)benzoic acid, reference compound] | 17 | 119 | IC50 ([1]; 44 hours): 16 µM |

Continued, in another order:

| IC50 [1, 4] [µM] | Compound | CC50 at 48 h [3] [µM] | also measured |
| --- | --- | --- | --- |
| 11 | COc1cc(C2CC2C(=O)Nc2ccccc2F)ccc1OC1CCN(C)C1 (stereo not shown) [Example 138, N-(2-fluorophenyl)-2-(3-methoxy-4-((1-methylpyrrolidin-3-yl)oxy)phenyl)cyclopropane carboxamide] | 50.9 |  |
| 8.35 | COc1ccc(C2CC2C(=O)Nc2ccc(Cl)cc2)cc1OCc1cnn(C)c1 (stereo not shown) [Example 149, N-(4-chlorophenyl)-2-(4-methoxy-3-((1-methyl-1H-pyrazol-4-yl)methoxy)phenyl)cyclopropane-1-carboxamide] | > 54.8 |  |
| 4.08 | COc1ccc(/C=C/C(=O)Nc2cccnc2)cc1OCc1cnn(C)c1 [Example 150, (E)-3-(4-methoxy-3-((1-methyl-1H-pyrazol-4-yl)methoxy)phenyl)-N-(pyridin-3-yl)acrylamide] | > 31.6 |  |
| 18.7 | COc1cc(C2CC2C(=O)Nc2ccccc2Cl)ccc1OCC1COC1 (stereo not shown) [Example 155, N-(2-chlorophenyl)-2-(3-methoxy-4-(oxetan-3-ylmethoxy)phenyl)cyclopropane-1-carboxamide] | 196 |  |
| 17.8 | COc1ccc(C2CC2C(=O)Nc2cccc(Cl)c2)cc1OCc1cnn(C)c1 (stereo not shown) [Example 156, N-(3-chlorophenyl)-2-(4-methoxy-3-((1-methyl-1H-pyrazol-4-yl)methoxy)phenyl)cyclopropane-1-carboxamide] | > 100 |  |
| 12.6 | COc1ccc(C2CC2C(=O)Nc2ccccc2Cl)cc1OCc1cnn(C)c1 (stereo not shown) [Example 157] | 45.3 |  |
| 25.9 | COc1ccc(C2CC2C(=O)Nc2cccc(S(C)(=O)=O)c2)cc1OCc1cnn(C)c1 (stereo not shown) [Example 158, 2-(4-methoxy-3-((1-methyl-1H-pyrazol-4-yl)methoxy)phenyl)-N-(3-(methylsulfonyl)phenyl)cyclopropane-1-carboxamide] | 68.8 |  |
| 2.43 | COc1ccc(/C=C/C(=O)Nc2ccccc2Cl)cc1OCc1cnn(C)c1 [Example 159, (E)-N-(2-chlorophenyl)-3-(4-methoxy-3-((1-methyl-1H-pyrazol-4-yl)methoxy)phenyl)acrylamide] | > 10 |  |
| 30.4 | COc1ccc(/C=C/C(=O)Nc2cccc(Cl)c2)cc1OCc1cnn(C)c1 [Example 160, (E)-N-(3-chlorophenyl)-3-(4-methoxy-3-((1-methyl-1H-pyrazol-4-yl)methoxy)phenyl)acrylamide] | > 300 |  |
